Assay results published in ChEMBL document CHEMBL4823279, “Epigenetic Manipulation to Trigger Production of Guaiane-Type Sesquiterpenes from a Marine-Derived Spiromastix sp. Fungus with Antineuroinflammatory Effects” (J Nat Prod, 2021).
Calls of active or inactive are those of the source. The rule behind the calls is not given here.

What was measured:
[1] = Cytotoxicity against mouse BV-2 cells assessed as reduction in cell viability measured after 24 hrs by MTT assay; assay type: cell-based
BV-2 [2] = assay: Anti-neuroinflammatory activity in mouse BV-2 cells assessed as inhibition of LPS-induced NO production measured after 24 hrs by Griess reagent based assay; assay type: functional, cell-based; settings: BV-2, 24 h
BV-2 [3] = assay: Anti-neuroinflammatory activity in mouse BV-2 cells assessed as reduction in LPS-stimulated COX-2 mRNA expression at 1 to 10 uM by qRT-PCR analysis; assay type: functional, cell-based; settings: dose 1-10 µM
BV-2 [4] = assay: Inhibition of ERK phosphorylation in LPS stimulated mouse BV-2 cells at 1 to 10 uM preincubated with LPS for 1 hr followed by incubation with compound for 16 hrs by western blot analysis; assay type: cell-based; settings: dose 1-10 µM
BV-2 [5] = assay: Anti-neuroinflammatory activity in mouse BV-2 cells assessed as reduction in LPS-stimulated IL-1 beta production at 1 to 10 uM preincubated for 1 hr followed by LPS treatment and measured after 24 hrs by ELISA; assay type: functional, cell-based; settings: dose 1-10 µM, time 25.0 hrs
[6] = target: c-Jun N-terminal kinase (Mus musculus) (UniProt Q91Y86+Q9WTU6+Q61831); assay: Inhibition of JNK phosphorylation in LPS stimulated mouse BV-2 cells at 1 to 10 uM preincubated with LPS for 1 hr followed by incubation with compound for 16 hrs by western blot analysis; assay type: cell-based; settings: dose 1-10 µM
c-Jun N-terminal kinase (Mus musculus), sequence (Q61831 whole entry, looked up): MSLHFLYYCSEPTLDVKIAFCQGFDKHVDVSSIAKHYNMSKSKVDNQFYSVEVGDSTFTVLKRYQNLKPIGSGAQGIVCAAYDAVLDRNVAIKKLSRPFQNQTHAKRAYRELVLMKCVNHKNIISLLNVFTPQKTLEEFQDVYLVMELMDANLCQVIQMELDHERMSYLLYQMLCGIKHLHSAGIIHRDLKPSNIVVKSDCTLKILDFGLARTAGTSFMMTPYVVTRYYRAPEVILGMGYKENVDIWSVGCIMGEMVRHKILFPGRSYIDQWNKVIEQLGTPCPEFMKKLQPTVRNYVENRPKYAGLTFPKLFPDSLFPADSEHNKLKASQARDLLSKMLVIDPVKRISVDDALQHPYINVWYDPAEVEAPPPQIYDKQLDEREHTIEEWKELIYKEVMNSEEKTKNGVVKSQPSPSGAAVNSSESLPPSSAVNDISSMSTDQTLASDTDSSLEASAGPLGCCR
c-Jun N-terminal kinase (Mus musculus), sequence (Q91Y86 whole entry, looked up): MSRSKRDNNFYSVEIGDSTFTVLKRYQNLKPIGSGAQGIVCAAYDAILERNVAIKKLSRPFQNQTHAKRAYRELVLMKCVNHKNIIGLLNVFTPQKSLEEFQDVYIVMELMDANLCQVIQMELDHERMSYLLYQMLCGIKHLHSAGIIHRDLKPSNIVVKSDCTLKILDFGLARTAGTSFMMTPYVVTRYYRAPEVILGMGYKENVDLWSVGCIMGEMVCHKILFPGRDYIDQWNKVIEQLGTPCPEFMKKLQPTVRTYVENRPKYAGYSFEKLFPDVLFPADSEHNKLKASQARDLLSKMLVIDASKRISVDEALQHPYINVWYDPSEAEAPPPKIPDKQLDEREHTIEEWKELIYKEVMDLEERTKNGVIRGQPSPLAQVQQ
c-Jun N-terminal kinase (Mus musculus), sequence (Q9WTU6 whole entry, looked up): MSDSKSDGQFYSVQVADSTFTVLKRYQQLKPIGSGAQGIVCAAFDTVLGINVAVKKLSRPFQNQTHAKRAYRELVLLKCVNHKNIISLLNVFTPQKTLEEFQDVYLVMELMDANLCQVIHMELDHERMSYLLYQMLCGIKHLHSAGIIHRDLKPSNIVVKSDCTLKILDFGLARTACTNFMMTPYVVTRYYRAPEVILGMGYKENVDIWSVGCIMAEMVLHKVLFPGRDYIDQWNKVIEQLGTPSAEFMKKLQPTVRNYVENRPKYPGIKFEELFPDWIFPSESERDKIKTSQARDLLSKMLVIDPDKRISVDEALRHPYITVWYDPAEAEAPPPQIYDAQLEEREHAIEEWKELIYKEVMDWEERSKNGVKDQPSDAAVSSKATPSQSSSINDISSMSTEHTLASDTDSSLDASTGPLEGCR

BV-2 [7] = assay: Anti-neuroinflammatory activity in mouse BV-2 cells assessed as reduction in LPS-stimulated IL-6 mRNA expression by qRT-PCR analysis; assay type: functional, cell-based; settings: dose 1-10 µM
BV-2 [8] = assay: Anti-neuroinflammatory activity against LPS stimulated mouse BV-2 cells assessed as reduction in COX-2 protein expression at 1 to 10 uM measured after 24 hrs in presence of LPS by western blot analysis; assay type: functional, cell-based; settings: dose 1-10 µM
BV-2 [9] = assay: Inhibition of TLR4 production in LPS stimulated mouse BV-2 cells at 1 to 10 uM preincubated with LPS for 1 hr followed by incubation with compound for 16 hrs by western blot analysis; assay type: functional, cell-based; settings: dose 1-10 µM
BV-2 [10] = assay: Anti-neuroinflammatory activity in mouse BV-2 cells assessed as reduction in LPS-stimulated IL-6 production at 1 to 10 uM preincubated for 1 hr followed by LPS treatment and measured after 24 hrs by ELISA; assay type: functional, cell-based; settings: dose 1-10 µM, time 25.0 hrs
BV-2 [11] = assay: Anti-neuroinflammatory activity in mouse BV-2 cells assessed as reduction in LPS-stimulated TNF-alpha mRNA expression by qRT-PCR analysis; assay type: functional, cell-based; settings: dose 1-10 µM
[12] = target: Transcription factor p65 (Mus musculus) (UniProt Q04207); assay: Inhibition of NF-kappaB p65 nuclear translocation in LPS-stimulated mouse BV-2 cells at 10 uM incubated with compound prior to LPS stimulation by DAPI staining based immunofluorescence assay; assay type: cell-based
Transcription factor p65 (Mus musculus), sequence (Q04207 whole entry): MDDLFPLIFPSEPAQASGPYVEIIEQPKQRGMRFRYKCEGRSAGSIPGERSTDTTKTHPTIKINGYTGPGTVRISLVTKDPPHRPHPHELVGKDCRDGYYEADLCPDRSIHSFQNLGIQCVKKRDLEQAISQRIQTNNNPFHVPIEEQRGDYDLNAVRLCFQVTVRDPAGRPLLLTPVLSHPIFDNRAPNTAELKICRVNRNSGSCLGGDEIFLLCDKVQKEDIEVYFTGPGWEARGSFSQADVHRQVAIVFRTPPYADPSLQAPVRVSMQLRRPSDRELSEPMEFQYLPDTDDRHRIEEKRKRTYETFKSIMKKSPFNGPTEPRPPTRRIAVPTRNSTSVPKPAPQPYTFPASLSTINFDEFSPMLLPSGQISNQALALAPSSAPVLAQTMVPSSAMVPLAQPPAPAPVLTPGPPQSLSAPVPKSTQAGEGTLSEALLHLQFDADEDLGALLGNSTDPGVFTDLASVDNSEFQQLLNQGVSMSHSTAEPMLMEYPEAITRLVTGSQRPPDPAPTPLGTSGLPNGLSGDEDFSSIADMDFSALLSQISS

[13] = target: MAP kinase p38 (Mus musculus) (UniProt P47811+O08911+Q9WUI1+Q9Z1B7); assay: Inhibition of p38 phosphorylation in LPS stimulated mouse BV-2 cells at 1 to 10 uM preincubated with LPS for 1 hr followed by incubation with compound for 16 hrs by western blot analysis; assay type: cell-based; settings: dose 1-10 µM
BV-2 [14] = assay: Anti-neuroinflammatory activity against LPS stimulated mouse BV-2 cells assessed as reduction in iNOS protein expression measured after 24 hrs in presence of LPS by western blot analysis; assay type: functional, cell-based; settings: dose 1-10 µM
BV-2 [15] = assay: Anti-neuroinflammatory activity in mouse BV-2 cells assessed as reduction in LPS-stimulated IL-1beta mRNA expression by qRT-PCR analysis; assay type: functional, cell-based; settings: dose 1-10 µM
BV-2 [16] = assay: Anti-neuroinflammatory activity in mouse BV-2 cells assessed as reduction in LPS-stimulated TNFalpha production at 1 to 10 uM preincubated for 1 hr followed by LPS treatment and measured after 24 hrs by ELISA; assay type: functional, cell-based; settings: dose 1-10 µM, time 25.0 hrs
BV-2 [17] = assay: Anti-neuroinflammatory activity in mouse BV-2 cells assessed as reduction in LPS-stimulated iNOS mRNA expression at 1 to 10 uM by qRT-PCR analysis; assay type: functional, cell-based; settings: dose 1-10 µM

SMILES	CC50 at 24 h [1]	IC50 (BV-2 [2])	other results
Cc1c2c(cc(C(C)C)cc1=O)[C@@](C)(O)CC2	79 µM	> 30 µM	–
CC(C)c1cc2c(c(CO)c(=O)c1)CC[C@@]2(C)O	61 µM	> 30 µM	–
Cc1c2c(cc(C(C)C)cc1=O)[C@@H](C)C[C@@H]2O	35 µM	> 30 µM	–
Cc1c2c(cc(C(C)C)cc1=O)[C@@H](C)CC2	76 µM	> 30 µM	–
Cc1c2c(cc(C(C)C)cc1=O)[C@](C)(O)C[C@@H]2O	49 µM	> 30 µM	–
CNC(=N)NCCC[C@H](N)C(=O)O [TILARGININE]	> 200 µM	10 µM	–
Cc1c2c(cc(C(C)C)cc1=O)[C@@H](C)C[C@H]2O	78 µM	26 µM	–
CC(C)c1cc2c(c(CO)c(=O)c1)[C@@H](O)C[C@@H]2C	49 µM	20 µM	–
CC(C)c1cc2c(c(CO)c(=O)c1)[C@H](O)C[C@@H]2C	74 µM	9 µM	Activity (BV-2 [3]): Active; inhibition (BV-2 [4]): inactive; Activity (BV-2 [5]): Active; inhibition [6]: inactive; Activity (BV-2 [7]): Active; Activity (BV-2 [8]): Active; inhibition (BV-2 [9]): inactive; Activity (BV-2 [10]): Active; Activity (BV-2 [11]): Active; inhibition [12]: Active; inhibition [13]: inactive; Activity (BV-2 [14]): Dose-Dependent Effect; Activity (BV-2 [15]): Active; Activity (BV-2 [16]): Active; Activity (BV-2 [17]): Active
Cc1c2c(cc(C(C)(C)O)cc1=O)[C@@H](C)C[C@@H]2O	39 µM	> 30 µM	–
